Measurements published in patent US20230024438A1, “INHIBITORS OF HIF-2ALPHA” (ARCUS BIOSCIENCES, INC., priority 2019, published 2023).

What was measured:
[1] = molecular target: T1, Histidine tagged HIF-2α protein containing PAS-B domain (240-350) (Homo sapiens, UniProt Q99814); assay: HIF-2α Scintillation Proximity Assay (SPA); assay type: binding; details: 50 nM HIF-2α protein, 25 nM radiolabeled tracer; read-out: HIF-2α Scintillation Proximity Assay
T1 construct: Histidine tagged HIF-2α protein containing PAS-B domain (240-350) was prepared and purified in house; made in house
Description: Tritium labeled compound N-(3-chlorophenyl)-4-nitro-2,1,3-benzoxadiazol-5-amine was obtained from American Radiolabeled Chemicals Inc. and copper chelate PVT SPA beads were from PerkinElmer (Cat #RPNQ0095). Histidine tagged HIF-2α protein containing PAS-B domain (240-350) was prepared and purified in house.
Compounds solubilized in DMSO were dispensed into a white 384-well polystyrene non-binding flat clear bottom plate (Greiner Bio-One, Cat #781903) using an HP D300 dispenser. Ten microliters of HIS-tagged HIF-2α protein in buffer (25 mM Tris-HCl, pH 7.4, 150 mM NaCl, 0.15% BSA and 0.001% Tween 20) was added to the compound wells and allowed to incubate for 1 hour at room temperature. Ten microliters of SPA bead mix were added to the wells and incubated for an additional 45 minutes, followed by 10 ul of ^3H-tracer solution. Final assay conditions comprised 50 nM HIF-2α protein, 25 nM radiolabeled tracer and 3 ug beads per well with compounds in 2% DMSO. The plate was read using a MicroBeta Microplate Counter (PerkinElmer) for luminescence detection. The IC50 values of the test compounds were determined from compound dose response curves fitted using a standard four parameter fit equation and are reported in Table 1.

HIF-2α = molecular target: T2, HIF-2α (Homo sapiens, UniProt Q99814); assay: HIF-2α Luciferase Reporter Assay; assay type: cell-based; details: HIF-Luc-786-0 cells, 20 hours incubation, luciferase activity; read-out: HIF-2α Luciferase Assay
T2 construct: endogenous in cells; host or cells: 786-O cells (ATCC CRL-1932) stably carrying the Cignal Lenti HIF Luc Reporter
Description: Stable cell lines were generated by transducing 786-O cells (ATCC, CRL-1932) with Cignal Lenti HIF Luc Reporter lentivirus (CLS-007L, Qiagen) according to the manufacturer's guidelines. In brief, 0.3×10^6 786-0 cells were transduced with lentivirus at a Multiplicity of Infection (MOI) of 25 for 24 hours. After transduction, cells were replenished with fresh RPMI 1640 Medium (Cat. No. 11875085, Thermo Fisher,) supplemented with 10% FBS (Cat. No. A3160502, Gibco), 2 mM GlutaMax (Cat. No. 35050-061, Invitrogen) and 100 units of penicillin and 100 μg of streptomycin/mL (Cat. No 15070063, Thermo Fisher) for another 24 hours. Antibiotic selection was performed in cell media containing 4 μg/mL of Puromycin. After 7 days of antibiotic selection, stable pools of surviving cells were expanded and used in a luciferase reporter assay.
On day one, 20 uL of HIF-Luc-786-0 cells in OptiMem (Cat. No. 31985088, Thermo Fisher) were seeded into each well of a 384 well white opaque plate (Corning 3570) and incubated at 37° C. and 5% CO2. Twenty microliters of 2× test compounds in OptiMem were added to cells after 4 hours of incubation. Final assay conditions comprised 20,000 cells per well in 1% DMSO with test compound concentrations ranging from 50 uM to 0 uM. After 20 hours incubation at 37° C. and 5% CO2, luciferase activity was determined using ONE-Glo Luciferase Assay Reagent (E6110, Promega) following the manufacture's recommended procedure. Briefly, 40 uL of ONE-Glo luciferase reagents were added to each well and luciferase signals were measured using an Envision 2102 Multilabel Reader. Percentage maximum activity in each test well was calculated based on DMSO (maximum activity) and no cell control wells (baseline activity). The IC50 values of the test compounds were determined from compound dose response curves fitted using a standard four parameter fit equation.

T2 sequence (Q99814 whole entry): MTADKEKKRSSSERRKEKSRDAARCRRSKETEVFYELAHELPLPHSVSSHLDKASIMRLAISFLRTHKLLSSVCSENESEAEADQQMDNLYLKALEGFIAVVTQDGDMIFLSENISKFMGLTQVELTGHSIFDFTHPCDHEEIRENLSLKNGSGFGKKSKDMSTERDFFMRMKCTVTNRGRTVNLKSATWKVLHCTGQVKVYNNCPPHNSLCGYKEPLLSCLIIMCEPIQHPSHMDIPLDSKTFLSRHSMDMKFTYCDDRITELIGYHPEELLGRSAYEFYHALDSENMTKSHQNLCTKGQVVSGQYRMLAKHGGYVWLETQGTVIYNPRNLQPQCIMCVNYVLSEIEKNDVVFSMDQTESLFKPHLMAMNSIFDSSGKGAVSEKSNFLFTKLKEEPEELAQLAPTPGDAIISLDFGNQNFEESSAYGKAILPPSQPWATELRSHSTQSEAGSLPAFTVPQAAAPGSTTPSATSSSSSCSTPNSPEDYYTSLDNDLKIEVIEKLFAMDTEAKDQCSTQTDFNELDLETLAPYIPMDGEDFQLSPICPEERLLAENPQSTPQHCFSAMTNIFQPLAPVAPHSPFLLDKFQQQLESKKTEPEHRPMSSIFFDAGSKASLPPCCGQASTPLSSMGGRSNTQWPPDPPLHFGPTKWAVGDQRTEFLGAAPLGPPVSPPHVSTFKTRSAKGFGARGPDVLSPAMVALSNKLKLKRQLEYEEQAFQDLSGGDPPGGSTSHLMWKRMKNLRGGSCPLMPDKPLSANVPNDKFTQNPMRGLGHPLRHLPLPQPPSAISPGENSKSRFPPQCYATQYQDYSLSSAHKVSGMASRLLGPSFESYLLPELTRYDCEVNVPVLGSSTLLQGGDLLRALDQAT
T1 sequence (Q99814 240-350): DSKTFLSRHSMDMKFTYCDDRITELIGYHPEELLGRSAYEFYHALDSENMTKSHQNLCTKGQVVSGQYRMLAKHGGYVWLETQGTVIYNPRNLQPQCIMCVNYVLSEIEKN

Row | Compound | IC50 [1] | IC50 (HIF-2α)
1 | N#Cc1cccc(Oc2ccc(S(=O)(=O)C(F)(F)F)c3[nH]ncc23)c1 [Example 42, 3-[[7-(Trifluoromethylsulfonyl)-1H-indazol-4-yl]oxy]benzonitrile] | < 1 µM | 1 to 10 µM
2 | CS(=O)(=O)c1ccc(Oc2cc(F)cc(Cl)c2)c2cn[nH]c12 [Example 7, 4-(3-Chloro-5-fluorophenoxy)-7-methanesulfonyl-1H-indazole] | > 10 µM | > 10 µM
3 | O=S(=O)(c1ccc(Oc2cc(F)c(F)c(F)c2)c2cn[nH]c12)C(F)(F)F [Example 30, 7-(Trifluoromethylsulfonyl)-4-(3,4,5-trifluorophenoxy)-1H-indazole] | 1 to 10 µM | > 10 µM
4 | O=S(=O)(c1ccc(Oc2ccc(Cl)c(F)c2)c2cn[nH]c12)C(F)(F)F [Example 33, 4-(4-Chloro-3-fluorophenoxy)-7-(trifluoromethylsulfonyl)-1H-indazole] | > 10 µM | > 10 µM
5 | COc1ccc(Oc2ccc(S(=O)(=O)C(F)(F)F)c3[nH]ncc23)cc1 [Example 20, 4-(p-Methoxyphenoxy)-7-(trifluoromethylsulfonyl)-1H-indazole] | > 10 µM | > 10 µM
6 | CS(=O)(=O)c1ccc(Nc2cc(F)cc(C#N)c2)c2cn[nH]c12 [Example 1, 3-Fluoro-5-[(7-methanesulfonyl-1H-indazol-4-yl)amino]benzonitrile] | – | 1 to 10 µM
7 | N#Cc1cc(Oc2ccc(S(=O)(=O)C(F)(F)F)c3[nH]ncc23)ccc1F [Example 36, 2-Fluoro-5-[[7-(trifluoromethylsulfonyl)-1H-indazol-4-yl]oxy]benzonitrile] | 1 to 10 µM | > 10 µM
8 | Cc1cncc(Oc2ccc(S(=O)(=O)C(F)(F)F)c3[nH]ncc23)n1 [Example 21, 4-[(6-Methylpyrazin-2-yl)oxy]-7-trifluoromethanesulfonyl-1H-indazole] | > 10 µM | > 10 µM
9 | O=S(=O)(c1ccc(Oc2ccc(F)c(Cl)c2)c2cn[nH]c12)C(F)(F)F [Example 38, 4-(3-Chloro-4-fluorophenoxy)-7-(trifluoromethylsulfonyl)-1H-indazole] | 1 to 10 µM | 1 to 10 µM
10 | N#Cc1cc(F)cc(Nc2ccc(C(F)(F)F)c3[nH]ncc23)c1 [Example 14, 3-Fluoro-5-[7-(trifluoromethyl)-1H-indazol-4-ylamino]benzonitrile] | 1 to 10 µM | 1 to 10 µM
11 | CS(=O)(=O)c1ccc(Oc2ccc(F)cc2F)c2cn[nH]c12 [Example 4, 4-(2,4-Difluorophenoxy)-7-methanesulfonyl-1H-indazole] | > 10 µM | > 10 µM
12 | O=S(=O)(c1ccc(Oc2ccc(Cl)cc2)c2cn[nH]c12)C(F)(F)F [Example 17, 4-(p-Chlorophenoxy)-7-(trifluoromethylsulfonyl)-1H-indazole] | > 10 µM | 1 to 10 µM
13 | N#Cc1cc(C#N)cc(Oc2ccc(S(=O)(=O)C(F)(F)F)c3[nH]ncc23)c1 [Example 22, 5-[(7-Trifluoromethanesulfonyl-1H-indazol-4-yl)oxy]benzene-1,3-dicarbonitrile] | 1 to 10 µM | –
14 | O=S(=O)(c1ccc(Oc2ccc(F)c(F)c2)c2cn[nH]c12)C(F)(F)F [Example 37, 4-(3,4-Fifluorophenoxy)-7-(trifluoromethylsulfonyl)-1H-indazole] | 1 to 10 µM | 1 to 10 µM
15 | N#Cc1cc(Oc2ccc(S(=O)(=O)C(F)(F)F)c3[nH]ncc23)cc(C(F)(F)F)c1 [Example 39, 3-(Trifluoromethyl)-5-[[7-(trifluoromethylsulfonyl)-1H-indazol-4-yl]oxy]benzonitrile] | 1 to 10 µM | 1 to 10 µM
16 | N#Cc1cc(Cl)cc(Oc2ccc(S(=O)(=O)C(F)(F)F)c3[nH]ncc23)c1 [Example 27, 3-Chloro-5-[[7-(trifluoromethylsulfonyl)-1H-indazol-4-yl]oxy]benzonitrile] | < 1 µM | 1 to 10 µM
17 | CS(=O)(=O)c1ccc(Oc2cc(F)cc(C#N)c2)c2cn[nH]c12 [Example 3, 3-Fluoro-5-[(7-methanesulfonyl-1H-indazol-4-yl)oxy]benzonitrile] | – | > 10 µM
18 | CS(=O)(=O)c1ccc(Oc2ccc(Cl)c(Cl)c2)c2cn[nH]c12 [Example 6, 4-(3,4-Dichlorophenoxy)-7-methanesulfonyl-1H-indazole] | – | 1 to 10 µM
19 | CS(=O)(=O)c1ccc(Oc2cccc(Cl)c2)c2cn[nH]c12 [Example 5, 4-(3-Chlorophenoxy)-7-methanesulfonyl-1H-indazole] | – | 1 to 10 µM

Second part, the compound after the results:

Row | IC50 [1] | IC50 (HIF-2α) | Compound
20 | 1 to 10 µM | > 10 µM | O=S(=O)(c1ccc(Nc2cc(F)cc(Cl)c2)c2cn[nH]c12)C(F)(F)F [Example 47, (3-Chloro-5-fluorophenyl)[7-(trifluoromethylsulfonyl)-1H-indazol-4-yl]amine]
21 | 1 to 10 µM | > 10 µM | O=S(=O)(c1ccc(Oc2cccc(Cl)c2)c2c(Cl)n[nH]c12)C(F)(F)F [Example 63, 3-Chloro-4-(m-chlorophenoxy)-7-(trifluoromethylsulfonyl)-1H-indazole]
22 | > 10 µM | 1 to 10 µM | N#Cc1cc(F)cc(Oc2ccc(S(=O)(=O)C(F)(F)F)c3[nH]nc(C#N)c23)c1 [Example 60, 4-(3-Cyano-5-fluorophenoxy)-7-trifluoromethanesulfonyl-1H-indazole-3-carbonitrile]
23 | 1 to 10 µM | 1 to 10 µM | N#Cc1cc(F)cc(Nc2ccc(S(=O)(=O)C(F)(F)F)c3[nH]ncc23)c1 [Example 45, 3-Fluoro-5-[(7-trifluoromethanesulfonyl-1H-indazol-4-yl)amino] benzonitrile]
24 | 1 to 10 µM | > 10 µM | O=S(=O)(c1ccc(Nc2cc(F)cc(F)c2)c2cn[nH]c12)C(F)(F)F [Example 46, (3,5-Difluorophenyl)[7-(trifluoromethylsulfonyl)-1H-indazol-4-yl]amine]
25 | 1 to 10 µM | > 10 µM | O=S(=O)(c1ccc(NC2CC(F)(F)C2)c2cn[nH]c12)C(F)(F)F [Example 57, N-(3,3-Difluorocyclobutyl)-7-trifluoromethanesulfonyl-1H-indazol-4-amine]
26 | – | > 10 µM | O=S(=O)(c1ccc(N2CCCc3cc(F)cc(F)c32)c2cn[nH]c12)C(F)(F)F [Example 49, 6,8-Difluoro-1-(7-trifluoromethanesulfonyl-1H-indazol-4-yl)-1,2,3,4-tetrahydroquinoline]
27 | > 10 µM | > 10 µM | N#Cc1cc(Nc2ccc(S(=O)(=O)C(F)(F)F)c3[nH]ncc23)ccc1F [Example 48, 2-Fluoro-5-[7-(trifluoromethylsulfonyl)-1H-indazol-4-ylamino]benzonitrile]
28 | – | > 10 µM | N#Cc1ccc(F)c(Oc2ccc(S(=O)(=O)C(F)(F)F)c3[nH]ncc23)c1 [Example 44, 4-Fluoro-3-[(7-trifluoromethanesulfonyl-1H-indazol-4-yl)oxy]benzonitrile]
29 | – | 1 to 10 µM | N#Cc1cc(F)cc(Nc2cncc3[nH]ncc23)c1 [Example 66, 3-Fluoro-5-({1H-pyrazolo[3,4-c]pyridin-4-yl}amino)benzonitrile]
30 | – | 1 to 10 µM | N#Cc1ccc(Cl)c(Oc2ccc(S(=O)(=O)C(F)(F)F)c3[nH]ncc23)c1 [Example 43, 4-Chloro-3-[(7-trifluoromethanesulfonyl-1H-indazol-4-yl)oxy]benzonitrile]
31 | – | 1 to 10 µM | N#Cc1cc(F)cc(Nc2cc(Cl)cc3[nH]ncc23)c1 [Example 65, 3-[(6-Chloro-1H-indazol-4-yl)amino]-5-florobenzonitrile]
32 | – | 1 to 10 µM | N#Cc1cc(F)cc(Nc2ncnc3[nH]ncc23)c1 [Example 67, 3-Fluoro-5-({1H-pyrazolo[3,4-d]pyrimidin-4-yl}amino)benzonitrile]
